The values that follow are results of earlier work, collected in patent publication US20100310475A1, “Biocide Capsules, Preparation Comprising them and Sanitary Pad Comprising the Preparation” (DOLHAY KLINIKA EG[…]., priority 2007, published 2010).

The subject of this series is pathogens. The settings on record: water solution.

For “polyvinyl-pyrrolidone iodine [PVP-iodine]”, the most effective concentration-range is on record as 0.01-1 % by weight.
